Measured values reported in patent publication US7595395B2, “Gabaergic agents to treat memory deficits” (priority 2005, dated 2009).

Assays:
α1β3γ2 GABAA receptor = α1β3γ2 GABAA receptor (Rattus norvegicus, UniProt P18508+P62813); test: Two-electrode voltage clamp in Xenopus oocytes, α1β3γ2; conditions: oocytes
C57B1/6 mice = test: Pavlovian fear conditioning, contextual memory, scopolamine impairment; assay type: in vivo; conditions: for fear conditioned contextual memory, impairment by scopolamine (in words): 10 mg/kg compound, 1 mg/kg scopolamine, mouse; for reversal of scopolamine induced memory deficits (in words): mice, dose not stated
Procedure: Because the hippocampus is involved in the regulation of events underlying learning and memory, α5 subtype selective agents were evaluated for their ability to modulate hippocampal-dependent and hippocampal-independent forms of memory using Pavlovian fear conditioning paradigms with mice or rats. The protocols for these studies were reported in references Bailey, D. J., Tetzlaff, J. E., Cook, J. M., He, X. H. and Helmstetter, F. J., “Effects of Hippocampal Injections of A Novel Ligand Selective for the Alpha 5 Beta 2 Gamma 2 Subunits of the GABA/Benzodiazepine Receptor on Pavlovian Conditioning,” Neurobiol. Learn. Mem., 78, 1-10 (2002); Delorey, T. M., Lin, R. C., Mcbrady, B., He, X. H., Cook, J. M., Lameh, J. and Loew, G. H., “Influence of Benzodiazepine Binding Site Ligands on Fear-Conditioned Contextual Memory,” Eur. J. Pharmacol., 426, 45-54 (2001).
Further, animal data for FIGS. 22-26 were obtained using experimental methodologies described in a previously published reference, Influence of benzodiazepine binding site ligands on fear-conditioned contextual memory European journal of Pharmacology, Volume 426, Issues 1-2, 24 Aug. 2001, Pages 45-54, Timothy M. DeLorey, Richard C. Lin, Brian McBrady, Xiaohui He, James M. Cook, Jelveh Lameh and Gilda H. Loew, which is incorporated by reference as if fully set forth here in its entirety. Selected sections of the reference are provided below:
Male C57B1/6 mice were obtained from Charles Rivers Laboratories (Holister, Calif.) at 6 weeks of age. Mice used in fear conditioning were between 7 and 12 weeks of age. Animals were housed eight to a cage in rooms with a normal 12-h light/12-h dark cycle (lights on 700-1900 h) with free access to food and water. Tests were conducted during the light phase between 1300 and 1700 h with a 20-min acclimation period in the testing room prior to drug or vehicle administration. All animal protocols used in this study conform to the guidelines determined by the National Institute of Health (USA) Office for Protection from Research Risks and are approved by the Animal Care and Use Committee of the Palo Alto Veterans Administration Medical Center, Palo, Alto, Calif. (USA).
Before testing each day, the mice were moved to a holding room and allowed to acclimate for at least 30 min. Each mouse received an i.p. injection of one of the following: vehicle, benzodiazepine binding site ligand (2-30 mg/kg), scopolamine (1 mg/kg), methylscopolamine (1 mg/kg) or scopolamine (1 mg/kg) combined with one of the benzodiazepine binding site ligands (2-30 mg/kg). The dose level chosen for each compound was one that neither elicited convulsions nor impaired locomotion. Twenty minutes after injection, the mice were placed individually in one of four identical experimental chambers (Med Associates, St. Albans, Vt.) that had been scented with 0.3% ammonium hydroxide solution before testing. Chambers were back-lit with fluorescent light with a white noise generator providing 70 dB of background noise. […] Twenty-four hours later, contextual memory was assessed by placing the mice back into the freshly rescented (0.3% Ammonium hydroxide) conditioning chambers in which they were trained, for a 4-min test period in the absence of footshock. Conditioned fear to the context was assessed by measuring the freezing response according to the methods of Fanselow and Bolles (1979). […] An observer, blind to the drug(s) used, scored each mouse every 8 s, for a total of 4 min, for presence or absence of freezing. […]

α1β3γ2 GABAA receptor, sequence (P62813 28-455): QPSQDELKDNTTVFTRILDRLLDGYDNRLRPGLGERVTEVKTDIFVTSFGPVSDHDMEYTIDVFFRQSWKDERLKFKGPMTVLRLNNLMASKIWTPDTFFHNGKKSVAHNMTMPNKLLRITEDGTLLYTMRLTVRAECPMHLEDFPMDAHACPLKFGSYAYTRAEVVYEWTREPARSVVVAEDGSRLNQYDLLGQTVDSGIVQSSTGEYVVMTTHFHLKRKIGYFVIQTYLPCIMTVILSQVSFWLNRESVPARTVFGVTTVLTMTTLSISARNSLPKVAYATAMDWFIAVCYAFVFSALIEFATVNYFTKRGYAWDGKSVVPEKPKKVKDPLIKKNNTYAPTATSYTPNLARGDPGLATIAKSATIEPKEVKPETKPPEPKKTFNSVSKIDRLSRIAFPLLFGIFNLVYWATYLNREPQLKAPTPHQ
α1β3γ2 GABAA receptor, sequence (P63079 26-473 partner): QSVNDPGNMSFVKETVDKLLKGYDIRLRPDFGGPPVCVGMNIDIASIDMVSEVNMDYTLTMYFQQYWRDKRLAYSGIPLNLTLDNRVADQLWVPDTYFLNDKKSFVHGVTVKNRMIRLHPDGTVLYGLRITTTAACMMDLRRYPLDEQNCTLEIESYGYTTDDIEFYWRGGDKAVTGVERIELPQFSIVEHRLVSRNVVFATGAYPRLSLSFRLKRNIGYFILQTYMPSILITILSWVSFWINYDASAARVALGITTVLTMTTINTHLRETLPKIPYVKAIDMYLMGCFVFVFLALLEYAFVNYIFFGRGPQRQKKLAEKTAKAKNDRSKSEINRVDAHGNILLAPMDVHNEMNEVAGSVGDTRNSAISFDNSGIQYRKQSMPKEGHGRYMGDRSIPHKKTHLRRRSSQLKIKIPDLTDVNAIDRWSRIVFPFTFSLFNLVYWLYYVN
α1β3γ2 GABAA receptor, sequence (P18508 39-466): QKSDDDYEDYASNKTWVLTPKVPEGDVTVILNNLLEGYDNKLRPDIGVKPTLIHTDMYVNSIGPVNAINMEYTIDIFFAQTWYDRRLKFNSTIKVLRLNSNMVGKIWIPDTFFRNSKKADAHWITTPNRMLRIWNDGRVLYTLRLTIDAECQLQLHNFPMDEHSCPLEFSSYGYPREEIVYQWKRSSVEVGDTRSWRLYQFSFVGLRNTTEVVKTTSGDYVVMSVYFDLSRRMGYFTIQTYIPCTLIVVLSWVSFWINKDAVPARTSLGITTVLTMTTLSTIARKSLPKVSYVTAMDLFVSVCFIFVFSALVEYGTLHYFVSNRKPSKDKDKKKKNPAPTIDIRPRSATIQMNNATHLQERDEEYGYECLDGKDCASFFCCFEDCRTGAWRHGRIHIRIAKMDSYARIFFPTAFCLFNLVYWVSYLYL

SMILES	efficacy / modulation of GABA elicited currents at α1 (in words) (α1β3γ2 GABAA receptor)	fear conditioned contextual memory, impairment by scopolamine (in words) (C57B1/6 mice)	reversal of scopolamine induced memory deficits (in words) (C57B1/6 mice)	reversal of scopolamine induced memory deficits (in words) (C57B1/6 mice; listed as XLi 356)	reversal of scopolamine induced memory deficits (in words) (C57B1/6 mice; listed as Xli356)
CCOC(=O)c1ncn2c1CN=C(c1ccccc1)c1cc(-c3ccccc3)ccc1-2 [DM-I-81, Ethyl 8-phenyl-6-phenyl-4H-benzo[f]imidazo[1,5-a][1,4]diazepine-3-carboxylate]	very poor efficacy				
COCc1ncn2c1CN(C)C(=O)c1cc(Cl)ccc1-2 [PWZ-029, methyl(8-chloro-5,6-dihydro-5-methyl-6-oxo-4H-imidazo[1,5-α][1,4]benzodiazepin-3-yl)methyl ether]		attenuation of contextual memory impairment	reverse scopolamine induced memory deficits		
CCc1ccc2c(c1)C(=O)N(C)Cc1c(C(=O)OCCCOC(=O)c3ncn4c3CN(C)C(=O)c3cc(CC)ccc3-4)ncn1-2 [XLi356, 1,3-Bis(8-ethyl-5,6-dihydro-5-methyl-6-oxo-4H-imidazo[1,5a][1,4]benzodiazepine-3-carboxy)propyl diester]	no activity	attenuates the impairment of memory		potently reverse scoploamine induced memory deficiencies	reverse scopolamine induced memory deficits
